Assay results: paper PMC8767159, “Multiparameter Optimization of Trypanocidal Cruzain Inhibitors With In Vivo Activity and Favorable Pharmacokinetics” (Frontiers in Pharmacology, 2022)

Tests used:
[1] = Parallel artificial membrane permeability assay (PAMPA); format: in vitro ADME; design: PAMPA: unit: 1e-6 cm/s; conditions: for PAMPA: unit not given
Description: The permeability of the compounds was assessed using the PAMPA method ([Yu et al., 2015]). The test compounds were dissolved in DMSO to a concentration of 5 mM. Next, the compounds were diluted in a stock plate in saline phosphate buffer (PBS), pH 6.5, containing 1% DMSO to a concentration of 1 µM. Then, 300 µl of each test compound was added to the donor plate. Afterward, 200 µl of PBS buffer, pH 7.4, was added to the acceptor plate. The donor plate was attached to the acceptor plate. The assembled acceptor-donor plate was then incubated at 37°C for 5 h under gentle agitation. To analyze the concentration of the compounds by mass spectrometry, two analysis plates (one for the donor and another for the acceptor plate) containing 300 μl of MEOH:ACN 50:50 were prepared. To the donor analysis plate, 90 µl of PBS, pH 6.5, and 10 µl of the content of the donor plate were added. For the acceptor analysis plate, 100 µl of the content of the acceptor plate was added. To monitor any potential decomposition/intrinsic instability of the test compounds in solution, samples from the stock plate were subjected to LC-MS/MS. The compounds that presented Pe ≥ 1.5 × 10^−6 cm/s were classified as permeable, while compounds that presented Pe < 1.5 × 10^−6 cm/s were considered poorly permeable or nonpermeable.

[2] = test system: T. cruzi intracellular amastigotes; assay: Assay against T. cruzi intracellular amastigotes (Tulahuen lacZ strain in HFF-1 fibroblasts); format: cell-based, Trypanosoma cruzi
Description: Biological assays against T. cruzi intracellular amastigotes were performed as reported previously using the T. cruzi Tulahuen strain, which is genetically engineered to express the E. coli β-galactosidase gene lacZ ([Buckner et al., 1996]). β-Galactosidase catalyzes a colorimetric reaction with chlorophenol red β-D-galactopyranoside (CPRG, Sigma Chemical Co., St. Louis, MO) as the substrate. The assays were conducted in 96-well tissue culture plates, and the compounds to be tested were prepared in 100% DMSO. Epimastigotes were maintained in liver infusion tryptone (LIT) enriched with 10% fetal calf serum (FCS), streptomycin, and penicillin at 28°C. Epimastigotes were converted to trypomastigotes by incubation in Grace’s insect medium (Sigma–Aldrich, St. Louis, MO) enriched with 10% FCS at 28°C. Human HFF-1 fibroblasts were seeded at 2 × 10^3/well in 80 μl of RPMI 1640 without phenol red and incubated overnight at 37°C and 5% CO2. Trypomastigotes were seeded at 1.0 × 10^4/well in 20 μl of RPMI 1640, and the plates were incubated at 37°C and 5% CO2. The next day, the synthesized compounds were added (50 μl) in 3-fold serial dilutions at concentrations ranging from 0.4 to 300 μM, and the plates were incubated at 37°C and 5% CO2. Each compound concentration was assayed in triplicate. After 120 h, 50 μl of chlorophenol red β-D-galactopyranoside (CPRG, Sigma–Aldrich) and IGEPAL CA-630 (Sigma–Aldrich) at a final concentration of 0.1% were added. The absorbance was measured at a wavelength of 570 nm in an automated microplate reader. The data were transferred to SigmaPlot 10.0 (Systat Software Inc., Erkrath, Germany) to determine the IC50 values. Benznidazole (BZ, Sigma–Aldrich) was used as a positive control, and untreated wells (100% parasite growth) were used as negative controls in all plates. All compounds were tested in three independent assays.

[3] = Trypanosoma cruzi, HFF-1, 120 h, Table 3, 120 h, mean ± SD of three assays
[4] = Trypanosoma cruzi, HFF-1, Table 4, mean ± SD of three assays
[5] = PAMPA, Table 3, donor pH 6.5, acceptor pH 7.4, 5 h

With O=C(CCc1ccccc1Br)NCCc1nc2ccccc2[nH]1 [Compound 36] the Papp at 5 h, 1 µM ([1]; PAMPA, Table 5) was 4.7 ×10⁻⁶ cm/s.
Work on O=C(COc1cccc(NC(=O)CCCO)c1)NCCc1nc2ccccc2[nH]1 [Compound 7] yielded a Papp at 5 h, 1 µM ([1]; Table S5, unit inferred) of 0.03 ×10⁻⁶ cm/s.
CC(=O)Nc1ccc(OCC(=O)NCCc2nc3ccccc3[nH]2)cc1 [Compound 2] gave an IC50 [2, 3] of 4.5 ± 0.6 µM, an IC50 [2, 4] of 12.1 ± 1.3 µM and a Papp at 5 h, 1 µM [1, 5] of 0.21 ×10⁻⁶ cm/s. The PAMPA ([1]; Table S5) was 0.21.
For O=C(Cn1ccnc1[N+](=O)[O-])NCc1ccccc1 [BZ, benznidazole, reference compound], the IC50 ([2]; Trypanosoma cruzi, HFF-1, Table 3, 120 h, mean ± SD of three assays) was 1.45 ± 0.4 µM, the IC50 [2, 4] was 3 ± 0.6 µM and the Papp at 5 h, 1 µM [1, 5] was 3.17 ×10⁻⁶ cm/s. It also gave a Papp at 5 h, 1 µM ([1]; PAMPA, Table 5) of 3.2 ×10⁻⁶ cm/s and a PAMPA ([1]; Table S5) of 3.17.
With O=C(COc1ccccc1)NCCc1nc2ccccc2n1CCOCc1ccccc1 [Compound 21] the Papp at 5 h, 1 µM ([1]; Table S5, unit inferred) was 3.98 ×10⁻⁶ cm/s.
CC(=O)Nc1cccc(OCC(=O)NCCc2nc3ccccc3[nH]2)c1 [Compound 3] showed an IC50 [2, 3] of 5 ± 1 µM, an IC50 [2, 4] of 5 ± 1 µM and a Papp at 5 h, 1 µM [1, 5] of 0.17 ×10⁻⁶ cm/s. It also gave a PAMPA ([1]; Table S5) of 0.17.
In the case of O=C(COc1ccccc1)NCCc1nc2ccccc2n1-c1ccccc1 [Compound 30], the Papp at 5 h, 1 µM ([1]; Table S5, unit inferred) is reported as 17.8 ×10⁻⁶ cm/s.
O=C(COc1ccccc1Br)NCCc1nc2ccccc2[nH]1 [Compound 18] showed an IC50 ([2]; Table 4, mean ± SD of three assays) of 1.63 ± 0.57 µM, an IC50 [2, 4] of 1.6 µM and a Papp at 5 h, 1 µM ([1]; PAMPA, Table 5) of 5.6 ×10⁻⁶ cm/s.
With O=C(COc1ccc2cc(O)ccc2c1)NCCc1nc2ccccc2[nH]1 [Compound 10] the IC50 [2, 3] was 14.6 ± 0.7 µM, the IC50 [2, 4] was 14.6 ± 0.7 µM and the Papp at 5 h, 1 µM [1, 5] was 0.21 ×10⁻⁶ cm/s. It also gave a PAMPA ([1]; Table S5) of 0.21.
O=C(COc1ccc(NC(=O)CCCO)cc1)NCCc1nc2ccccc2[nH]1 [Compound 5] gave an IC50 [2, 4] of ~50 µM and a Papp at 5 h, 1 µM ([1]; Table S5, unit inferred) of 0.02 ×10⁻⁶ cm/s.
For C=CCCn1c(CCNC(=O)COc2ccccc2)nc2ccccc21 [Compound 27], the IC50 [2, 3] was 6.9 ± 2.2 µM, the IC50 [2, 4] was 6.9 ± 2.2 µM and the Papp at 5 h, 1 µM [1, 5] was 9.06 ×10⁻⁶ cm/s. For the same molecule, the PAMPA ([1]; Table S5) was 9.06.
O=C(COc1ccc2ccc(O)cc2c1)NCCc1nc2ccccc2[nH]1 [Compound 11] showed an IC50 [2, 3] of 2.8 ± 0.6 µM, a Papp at 5 h, 1 µM [1, 5] of 0.17 ×10⁻⁶ cm/s and a Papp at 5 h, 1 µM ([1]; Table S5, unit inferred) of 0.13 ×10⁻⁶ cm/s.
Work on O=C(COc1ccccc1)NCCc1nc2ccccc2n1CCOc1ccccc1Br [Compound 19] yielded a Papp at 5 h, 1 µM ([1]; Table S5, unit inferred) of 0.08 ×10⁻⁶ cm/s.
For O=C(COc1cccc(N2C(=O)CCC2=O)c1)NCCc1nc2ccccc2[nH]1 [Compound 6], the Papp at 5 h, 1 µM ([1]; Table S5, unit inferred) was 0.2 ×10⁻⁶ cm/s.
Work on O=C(COc1ccccc1[N+](=O)[O-])NCCc1nc2ccccc2[nH]1 [Compound 32] yielded an IC50 [2, 4] of 7.9 ± 2.13 µM and a Papp at 5 h, 1 µM ([1]; PAMPA, Table 5) of 4.9 ×10⁻⁶ cm/s.
In the case of Cc1ccccc1OCC(=O)NCCc1nc2ccccc2[nH]1 [Compound 17], the IC50 [2, 4] is reported as 2.81 ± 0.75 µM and the Papp at 5 h, 1 µM ([1]; PAMPA, Table 5) is reported as 5.9 ×10⁻⁶ cm/s.
O=C(COc1ccccc1)NCCc1nc2ccccc2[nH]1 [Compound 1] showed an IC50 [2, 3] of 3.9 ± 0.3 µM, an IC50 [2, 4] of 3.9 ± 0.3 µM and a Papp at 5 h, 1 µM [1, 5] of 4.21 ×10⁻⁶ cm/s. For the same molecule, the PAMPA ([1]; Table S5) was 4.21.
With Nc1cccc(OCC(=O)NCCc2nc3ccccc3[nH]2)c1 [Compound 9] the IC50 [2, 3] was 5.4 ± 0.9 µM, the Papp at 5 h, 1 µM [1, 5] was 0.38 ×10⁻⁶ cm/s and the PAMPA ([1]; Table S5) was 0.38.
For O=C(COc1ccc2ccccc2c1)NCCc1nc2ccccc2[nH]1 [Compound 35], the IC50 [2, 4] was 46.1 ± 6.21 µM and the Papp at 5 h, 1 µM ([1]; PAMPA, Table 5) was 0.7 ×10⁻⁶ cm/s.
Molecule O=C(COc1ccccc1Br)NCCc1nc2ccccc2n1CCOc1ccccc1Br [Compound 23] has a Papp at 5 h, 1 µM ([1]; Table S5, unit inferred) of 0.08 ×10⁻⁶ cm/s.
In the case of O=C(COc1ccccc1)NCCc1nc2ccccc2n1CCCOc1ccccc1 [Compound 24], the IC50 [2, 3] is reported as 1.43 ± 0.4 µM, the IC50 [2, 4] is reported as 1.43 ± 0.4 µM and the Papp at 5 h, 1 µM [1, 5] is reported as 2.29 ×10⁻⁶ cm/s. For the same molecule, the PAMPA ([1]; Table S5) was 2.29.
With O=C(COc1ccc2ccccc2c1Br)NCCc1nc2ccccc2[nH]1 [Compound 34] the IC50 [2, 4] was 16.2 ± 3.51 µM and the Papp at 5 h, 1 µM ([1]; PAMPA, Table 5) was 0.3 ×10⁻⁶ cm/s.
With Cc1ccccc1OCC(=O)NCCc1nc2ccccc2n1CCOc1ccccc1Br [Compound 22] the Papp at 5 h, 1 µM ([1]; Table S5, unit inferred) was 0.04 ×10⁻⁶ cm/s.
For Cn1c(CCNC(=O)COc2ccccc2)nc2ccccc21 [Compound 25], the “IC50 T. cruzi (μM)” value ([2]; Table 3, 120 h, mean ± SD of three assays) was “inactive”, the IC50 [2, 3] was ~100 µM and the Papp at 5 h, 1 µM [1, 5] was 1.46 ×10⁻⁶ cm/s. For the same molecule, the Papp at 5 h, 1 µM ([1]; Table S5, unit inferred) was 6.55 ×10⁻⁶ cm/s.
N#Cc1ccccc1OCC(=O)NCCc1nc2ccccc2[nH]1 [Compound 31] gave a Papp at 5 h, 1 µM ([1]; PAMPA, Table 5) of 2.2 ×10⁻⁶ cm/s.
Molecule O=C(COc1ccc(N2C(=O)CCC2=O)cc1)NCCc1nc2ccccc2[nH]1 [Compound 4] has a Papp at 5 h, 1 µM ([1]; Table S5, unit inferred) of 0.17 ×10⁻⁶ cm/s.
For O=C(COc1ccccc1)NCCc1nc2ccccc2n1Cc1ccccc1 [Compound 26], the IC50 [2, 3] was 7.4 ± 2 µM, the IC50 [2, 4] was 7.4 ± 2 µM and the Papp at 5 h, 1 µM [1, 5] was 8.72 ×10⁻⁶ cm/s. It also gave a PAMPA ([1]; Table S5) of 8.72.
Work on COc1ccc2cc(OCC(=O)NCCc3nc4ccccc4[nH]3)ccc2c1 [Compound 12] yielded an IC50 [2, 3] of 16.6 ± 2.4 µM, a Papp at 5 h, 1 µM [1, 5] of 0.34 ×10⁻⁶ cm/s and a PAMPA ([1]; Table S5) of 0.34.
Cc1ccccc1OCC(=O)NCCc1nc2ccccc2o1 [Compound 37] gave an IC50 [2, 4] of 2.9 ± 0.66 µM and a Papp at 5 h, 1 µM ([1]; PAMPA, Table 5) of 19.7 ×10⁻⁶ cm/s.
O=C(COc1ccc(Br)cc1)NCCc1nc2ccccc2[nH]1 [Compound 33] gave an IC50 [2, 4] of 6.68 ± 2.35 µM and a Papp at 5 h, 1 µM ([1]; PAMPA, Table 5) of 0.7 ×10⁻⁶ cm/s.
O=C(COc1cccc([N+](=O)[O-])c1)NCCc1nc2ccccc2[nH]1 [Compound 8] showed an IC50 [2, 3] of 3.5 ± 0.7 µM, an IC50 [2, 4] of 3.5 ± 0.7 µM and a Papp at 5 h, 1 µM [1, 5] of 2.17 ×10⁻⁶ cm/s. For the same molecule, the PAMPA ([1]; Table S5) was 2.17.
COCCn1c(CCNC(=O)COc2ccccc2)nc2ccccc21 [Compound 29] showed a Papp at 5 h, 1 µM ([1]; Table S5, unit inferred) of 9.35 ×10⁻⁶ cm/s.
Molecule O=C(COc1ccccc1)NCCc1nc2ccccc2n1CCOc1ccccc1 [Compound 20] has an IC50 [2, 3] of 2.04 ± 0.6 µM, an IC50 [2, 4] of 2.04 ± 0.6 µM and a Papp at 5 h, 1 µM [1, 5] of 4.3 ×10⁻⁶ cm/s. The PAMPA ([1]; Table S5) was 4.30.
Molecule NC(=O)Cn1c(CCNC(=O)COc2ccccc2)nc2ccccc21 [Compound 28] has an IC50 [2, 3] of 6.8 ± 0.9 µM, an IC50 [2, 4] of 6.8 ± 0.9 µM and a Papp at 5 h, 1 µM [1, 5] of 0.71 ×10⁻⁶ cm/s. For the same molecule, the PAMPA ([1]; Table S5) was 0.71.
In the case of C=CCCn1c(CCNC(=O)COc2ccccc2Cl)nc2ccccc21 [Compound 38], the IC50 [2, 4] is reported as 11.1 ± 3.19 µM and the Papp at 5 h, 1 µM ([1]; PAMPA, Table 5) is reported as 7.7 ×10⁻⁶ cm/s.
